Measured values as given in ChEMBL document CHEMBL1156013, “Pharmacophore-guided lead optimization: the rational design of a non-zinc coordinating, sub-micromolar inhibitor of the botulinum neurotoxin serotype a metalloprotease” (Bioorg Med Chem Lett, 2009).

What was measured:
[1] = biological target: Botulinum neurotoxin type A (Clostridium botulinum) (UniProt P0DPI0); experiment: Inhibition of Clostridium botulinum neurotoxin A light chain at 20 uM by HPLC-based assay
[2] = biological target: Botulinum neurotoxin type A (Clostridium botulinum, UniProt P0DPI0); experiment: Inhibition of Clostridium botulinum neurotoxin A light chain by HPLC-based assay
Sequence of Botulinum neurotoxin type A (P0DPI0 2-448 limits assumed): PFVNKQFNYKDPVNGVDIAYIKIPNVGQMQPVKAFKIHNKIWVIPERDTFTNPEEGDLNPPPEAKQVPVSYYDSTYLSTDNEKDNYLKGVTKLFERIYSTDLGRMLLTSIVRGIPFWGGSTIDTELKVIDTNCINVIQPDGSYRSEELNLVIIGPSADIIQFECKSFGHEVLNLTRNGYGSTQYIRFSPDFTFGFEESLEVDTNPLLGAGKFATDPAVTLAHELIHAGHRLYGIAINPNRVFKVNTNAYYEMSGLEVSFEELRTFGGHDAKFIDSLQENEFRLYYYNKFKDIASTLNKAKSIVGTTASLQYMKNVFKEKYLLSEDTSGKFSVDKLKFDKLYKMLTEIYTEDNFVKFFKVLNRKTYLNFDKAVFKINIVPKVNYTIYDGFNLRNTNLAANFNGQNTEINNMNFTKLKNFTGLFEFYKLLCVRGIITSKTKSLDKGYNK

Sequence of Botulinum neurotoxin type A (Clostridium botulinum) (P0DPI0 2-448 limits assumed): as above

Row | SMILES | inhibition [1] [%] | IC50 [2] [nM] | Ki [2] [nM]
1 | Clc1ccc2c(NCCCNCCCNc3ccnc4cc(Cl)ccc34)ccnc2c1 | 60 | – | –
2 | N=C(N)c1ccc(Oc2ccc(-c3cc4ccc(C(=N)N)cc4[nH]3)cc2)cc1 | – | 3000 | 10000
3 | N=C(N)c1ccc(Oc2ccc(-c3cc4ccc(/C(N)=N/CCCNc5ccnc6cc(Cl)ccc56)cc4[nH]3)cc2)cc1 | 95 | – | 600
4 | N=C(N)c1ccc2cc(-c3ccc(Oc4ccc(/C(N)=N/CCCNc5ccnc6cc(Cl)ccc56)cc4)cc3)[nH]c2c1 | 95 | – | 600
